Legend:
Assay type in all cases: in vivo, mouse
[1] = test system: WAT of mice; test: β3-adrenergic agonist treatment of mice, H&E staining of white adipose tissue (beige fat islets)
Description: (§1) All mice were housed in the pathogen-free barrier facility of the University Medical Center Freiburg in accordance with institutional guidelines and approved by the regional board. Mice were maintained in a temperature- and humidity-controlled animal facility with a 12-hour light/dark cycle, free access to water, and a standard rodent chow (Kliba, breeding, 3807). The high-fat diet (HFD) study was carried out with a chow containing 4.056 kcal/kg (fat: 1.600 kcal/kg and sucrose: 1.600 kcal/kg; Research Diets). HFD was given to mice at 5 weeks of age. Mice were analysed at 25 weeks of age. For cold exposure experiments, mice were maintained at 10° C. with a 12 hour light/dark cycle, free access to water, and a standard rodent chow. Animals were killed by cervical dislocation, tissues were immediately collected, weighted, frozen in liquid nitrogen or processed for further analyses. Nomenclature for dissected adipose depots was used according to Seale et al.^17. Epididymidal WAT (epWAT): prominent bilateral intra-abdominal visceral depots in male mice attached to the epididymis. Inguinal WAT (ingWAT): bilateral superficial inguinal depots between the skin and muscle fascia just anterior to the lower segment of the hind limbs. Perimuscular WAT (pmWAT): depots located on the upper part of the quadriceps muscle. […]

[2] = test system: WAT of mice; test: β3-adrenergic agonist treatment of Ctrl and LSD1+/− mice, qRT-PCR transcript levels in WAT
Description: All mice were housed in the pathogen-free barrier facility of the University Medical Center Freiburg in accordance with institutional guidelines and approved by the regional board. Mice were maintained in a temperature- and humidity-controlled animal facility with a 12-hour light/dark cycle, free access to water, and a standard rodent chow (Kliba, breeding, 3807). The high-fat diet (HFD) study was carried out with a chow containing 4.056 kcal/kg (fat: 1.600 kcal/kg and sucrose: 1.600 kcal/kg; Research Diets). HFD was given to mice at 5 weeks of age. Mice were analysed at 25 weeks of age. For cold exposure experiments, mice were maintained at 10° C. with a 12 hour light/dark cycle, free access to water, and a standard rodent chow. Animals were killed by cervical dislocation, tissues were immediately collected, weighted, frozen in liquid nitrogen or processed for further analyses. Nomenclature for dissected adipose depots was used according to Seale et al.^17. Epididymidal WAT (epWAT): prominent bilateral intra-abdominal visceral depots in male mice attached to the epididymis. Inguinal WAT (ingWAT): bilateral superficial inguinal depots between the skin and muscle fascia just anterior to the lower segment of the hind limbs. Perimuscular WAT (pmWAT): depots located on the upper part of the quadriceps muscle. Retroperitoneal WAT (rpWAT): bilateral depots in abdominal cavity behind the peritoneum on the dorsal side of the kidney. Interscapular BAT (BAT): most prominent depot of brown adipocytes in rodents, found between the scapulae. In vivo experiments including food consumption, serum analysis, glucose tolerance and insulin sensitivity tests, temperature measurements, body lean and fat contents, and energy expenditure were described^48. CL316,243 (Sigma-Aldrich) was injected intraperitoneally at 1 mg/kg.
RNA was isolated with TRIzol Reagent (Invitrogen). […] Quantitative RT-PCR was performed using the Abgene SYBR Green PCR kit (Invitrogen) according to the supplier's protocol. Data were analysed using the standard curve method^53. […]

[3] = test system: LSD1; test: β3-adrenergic agonist treatment of mice, Western blot of LSD1 in WAT; settings: wild-type mice, CL316,243 injected intraperitoneally at 1 mg/kg vs vehicle
Description: as §1, with “al.^17.” for “al.^17. Epididymidal WAT (epWAT): prominent bilateral intra-abdominal visceral depots in male mice attached to the epididymis. Inguinal WAT (ingWAT): bilateral superficial inguinal depots between the skin and muscle fascia just anterior to the lower segment of the hind limbs. Perimuscular WAT (pmWAT): depots located on the upper part of the quadriceps muscle.”
Homogenates were separated in 10% polyacrylamide gels and blotted to Hybond nitrocellulose membranes (GE Healthcare). […] Secondary antibodies conjugated to horseradish peroxidase (GE Healthcare) were detected using an enhanced chemiluminescence detection system (GE Healthcare). Protein levels were quantified using the Chemi Capt software (Peqlab).

## C[C@H](Cc1ccc2c(c1)OC(C(=O)[O-])(C(=O)[O-])O2)NC[C@H](O)c1cccc(Cl)c1.[Na+].[Na+] [CL316,243]
[1]; LSD1+/− mice compared to control mice, both treated with CL316,243
  clusters of beige fat cells in WAT: fewer clusters of beige fat cells
[1]; wild-type mice, CL316,243 injected intraperitoneally at 1 mg/kg vs vehicle
  beige adipocyte formation in WAT: appearance of multilocular beige adipocytes
[2]; Ctrl and LSD1+/− mice, vs vehicle
  expression of white fat-selective and adipogenic markers: not significantly affected
[2]; LSD1+/− mice
  adrenergic induction of Cidea, Prdm16, Pgc-1α, Ucp1 and beige fat-selective markers in WAT: impaired
[2]; control mice, vs vehicle
  expression of Cidea, Prdm16, Pgc-1α, and Ucp1 and of beige fat-selective markers in WAT: significantly increases
[3]
  LSD1 protein levels in WAT: increased
